Source: US20230141988A1, “PHARMACEUTICAL COMPOSITION FOR USE IN THE TREATMENT OF NEUROLOGICAL DISEASES” (Aclipse One Inc., priority 2020, published 2023)
Read-outs that look alike come from different tables or passages of the source.

What was measured:
[1] = Plasma and CSF pharmacokinetic study, single sublingual, oral or subcutaneous dose, male Beagle dogs; type: in vivo; conditions: male, beagle, dog
Method: Animals were fed twice daily. […] Food was withheld until 4-hour post-dose.
All blood samples were collected from a peripheral vessel.
For CSF collection, a polypropylene tube was first weighted to accuracy of 0.1 mg (weight #1). CSF was collected in the tube and weighted again (weight #2). Total CSF weight was calculated by subtracting weight #1 from weight #2. Samples were kept on ice and protected from sunlight. Stabilizing agent (ascorbic acid 200 mg/mL) was added within 60 minutes in a proportion of 10% in CSF. Frozen CSF samples on dry ice were stored at −60° C. or lower until bioanalysis.
All CSF samples were added with the equal volume of plasma. […] 30 μL supernatant was then mixed with 30 μL water, vortex-mixed well and centrifuged at 4° C.
Dilution procedure description: Dilution factor as 5—An aliquot of 2 μL sample was added with 8 μL blank matrix.
The flow rate was 0.6 mL/min. The injection volume was 3 μL. The following gradient was implemented: […]

[2] = Oxidation in liquid solutions; type: physicochemical; conditions: in the liquid solutions
[3] = in vivo, 5 mg/kg, plasma concentration
[4] = in vivo, po, 10 mg/kg, CSF concentration
[5] = in vivo, po, 10 mg/kg, plasma concentration
[6] = in vivo, sc, 1 mg/kg, CSF concentration
[7] = in vivo, sc, 1 mg/kg, plasma concentration

CN1CCc2cccc3c2[C@@H]1Cc1ccc(O)c(O)c1-3
Cmax ([1]; in vivo, 5 mg/kg, maximum CSF concentration (Cmax)): 126 ± 144 ng/mL | Cmax ([1]; in vivo, 5 mg/kg, maximum plasma concentration (Cmax)): 143 ± 24 ng/mL | concentration at 0.5 h [1, 3]: 162 ng/mL | concentration at 1 h [1, 3]: 116 ng/mL | concentration at 2 h [1, 3]: 10.8 ng/mL | concentration at 4 h [1, 3]: 3.39 ng/mL | concentration at 8 h [1, 3]: 2.74 ng/mL | concentration at […] [1, 3]: 151 ng/mL | concentration at 0.5 h ([1]; in vivo, 5 mg/kg, single SL 5 mg/kg, 0.500 h, individual animal, read-out: CSF concentration): 6.23 ng/mL | concentration at 8 h ([1]; in vivo, 5 mg/kg, single SL 5 mg/kg, 8.00 h, individual animal, read-out: CSF concentration): 1.16 ng/mL | concentration at 24 h ([1]; in vivo, 5 mg/kg, single SL 5 mg/kg, 24.0 h, individual animal, read-out: plasma concentration): 1.49 ng/mL | plasma concentration ([1]; in vivo, po, 10 mg/kg, 1 h): 63.3 ng/mL | Kp ([1]; in vivo, po, 10 mg/kg, AUC Ratio (AUClast ratio of CSF to total plasma)): 0.33 | Kp ([1]; in vivo, po, 10 mg/kg, AUClast ratio of CSF to total plasma): 0.27 ± 0.0663 | concentration at 0.5 h [1, 4]: 48.5 ng/mL | concentration at 4 h [1, 4]: 8.15 ng/mL | concentration at […] [1, 4]: 24.7 ng/mL | Tmax ([1]; in vivo, po, 10 mg/kg, Tmax): 30 min | Cmax ([1]; in vivo, po, 10 mg/kg, male Beagle dogs (fasted), single PO 10 mg/kg, plasma, individual dogs, read-out: Cmax): 84.8 ng/mL | concentration at 0.5 h [1, 5]: 78 ng/mL | concentration at 1 h [1, 5]: 42.2 ng/mL | concentration at 2 h [1, 5]: 22.9 ng/mL | concentration at 4 h [1, 5]: 15.6 ng/mL | concentration at 8 h [1, 5]: 9.36 ng/mL | concentration at 24 h [1, 5]: 4.5 ng/mL | concentration at […] [1, 5]: 9.2 ng/mL | concentration at 0.5 h ([1]; in vivo, po, 10 mg/kg, single PO 10 mg/kg, 0.500 h, individual animal, read-out: CSF concentration): 17.8 ng/mL | concentration at 4 h ([1]; in vivo, po, 10 mg/kg, single PO 10 mg/kg, 4.00 h, individual animal, read-out: CSF concentration): 12.4 ng/mL | plasma concentration ([1]; in vivo, sc, 1 mg/kg, 1 h): 20.7 ng/mL | plasma concentration ([1]; in vivo, sc, 1 mg/kg, 2 h): 2.17 ng/mL | Kp ([1]; in vivo, sc, 1 mg/kg, AUC Ratio): 0.806 | AUC(0-inf) ([1]; in vivo, sc, 1 mg/kg, AUCinf): 88.4 ± 23.8 ng·h/mL | Kp ([1]; in vivo, sc, 1 mg/kg, AUClast ratio of CSF to total plasma): 0.964 ± 0.456 | concentration at 0.033 h [1, 6]: 1.73 ng/mL | concentration at 0.5 h [1, 6]: 15.6 ng/mL | concentration at 2 h [1, 6]: 6.55 ng/mL | concentration at 8 h [1, 6]: 10.8 ng/mL | AUC(0-t) ([1]; in vivo, sc, 1 mg/kg, CSF, single SC 1 mg/kg, individual animal): 119 ng·h/mL | Cmax ([1]; in vivo, sc, 1 mg/kg, plasma Cmax): 110 ± 19.4 ng/mL | concentration at 0.5 h [1, 7]: 76.6 ng/mL | concentration at 1 h [1, 7]: 27.9 ng/mL | concentration at 2 h [1, 7]: 3.58 ng/mL | concentration at 4 h [1, 7]: 1.11 ng/mL | concentration at 24 h [1, 7]: 1.04 ng/mL | concentration at […] [1, 7]: 89.2 ng/mL | Cmax ([1]; in vivo, sc, 1 mg/kg, plasma, single SC 1 mg/kg, individual animal, read-out: Cmax): 113 ng/mL | concentration at 0.033 h ([1]; in vivo, sc, 1 mg/kg, single SC 1 mg/kg, 119 s, individual animal, read-out: CSF concentration): 22.6 ng/mL | concentration at 0.033 h ([1]; in vivo, sc, 1 mg/kg, single SC 1 mg/kg, 119 s, mean, read-out: CSF concentration): 12.2 ng/mL | concentration at 0.5 h ([1]; in vivo, sc, 1 mg/kg, single SC 1 mg/kg, 0.500 h, individual animal, read-out: CSF concentration): 17.8 ng/mL | concentration at 1 h ([1]; in vivo, sc, 1 mg/kg, single SC 1 mg/kg, 1.00 h, individual animal, read-out: plasma concentration): 11.9 ng/mL | concentration at 1 h ([1]; in vivo, sc, 1 mg/kg, single SC 1 mg/kg, 1.00 h, mean, read-out: CSF concentration): 11.6 ng/mL | concentration at 2 h ([1]; in vivo, sc, 1 mg/kg, single SC 1 mg/kg, 2.00 h, individual animal, read-out: CSF concentration): 12.8 ng/mL | concentration at 4 h ([1]; in vivo, sc, 1 mg/kg, single SC 1 mg/kg, 4.00 h, individual animal, read-out: CSF concentration): 10.2 ng/mL | concentration at 8 h ([1]; in vivo, sc, 1 mg/kg, single SC 1 mg/kg, 8.00 h, individual animal, read-out: CSF concentration): 4.37 ng/mL | Kp ([1]; in vivo, AUClast ratio of CSF to total plasma, single SC 1 mg/kg, individual animal, read-out: AUC Ratio): 1.48 | AUC(0-t) ([1]; plasma, 5 mg/kg, male Beagle dogs (fasted), single SL 5 mg/kg, individual dogs): 165 ng·h/mL | AUC(0-inf) ([1]; plasma, 5 mg/kg, male Beagle dogs (fasted), single SL 5 mg/kg, plasma, individual dogs, read-out: AUCinf): 178 ng·h/mL | AUC(0-inf) ([1]; plasma, sc, 1 mg/kg, plasma, single SC 1 mg/kg, individual animal, read-out: AUCinf): 115 ng·h/mL | oxidation [2]: significant oxidation
